Assay results taken from paper PMC8760230, “Translational Development of a Zr-89-Labeled Inhibitor of Prostate-specific Membrane Antigen for PET Imaging in Prostate Cancer” (Molecular Imaging and Biology, 2021).
“Also recorded” adds a separate entry of the source. Where two headings read alike, the source gives them in different places.

Assays:
LNCaP tumor xenograft = test: Small-animal PET in mice bearing an LNCaP tumor xenograft, with and without blocking by 2-PMPA; settings: 2-PMPA 23 mg/kg, n=3 per group
LNCaP cells [1] = test: Cellular uptake (specific cell binding) in LNCaP cells; type: cell-based; settings: n=3
Protocol: (§1) The cell binding determined in these experiments is the sum of specific and nonspecific cell binding. To determine the values for nonspecific cell binding and internalization, all experiments were additionally performed in the presence of 2-PMPA.
(§2) The plates were incubated for 1 h; after which, 0.75 pmol of the radiotracer to be examined was added to 1 ml of fresh medium. The cells were incubated for 30 min, 1, 2, 3, and 5 h. At each time point, the supernatant was removed and the cells washed with 1 ml of PBS. To dissociate the receptor-bound radioligand, the cells were washed twice with 1 ml of a 0.1 M glycine buffer solution at pH 2.8 for 5 min. The 0.1 M glycine–HCl buffer dissociated all the surface-bound complexes. The cells were then washed with 1 ml of PBS, and the internalized fraction was determined by solubilizing the cells with 1 ml of 1 M NaOH and incubating them for 10 min at room temperature. The radioactivity collected from the culture medium, 0.1 M glycine (surface-bound), and 1 M NaOH (internalized fraction) was measured in a gamma counter and decay-corrected. Cell binding was calculated from the surface-bound (0.1 M glycine) and the internalized fraction (1 M NaOH). The internalized fraction was expressed as a percentage of cell binding (internalization to cell-bound radioactivity ratio). All cell uptake experiments were run in triplicate.

PSMA = target: T1, PSMA (Homo sapiens, UniProt Q04609); test: Equilibrium dissociation constant Kd / Bmax, saturation binding on PSMA-positive LNCaP cells; settings: for Kd: 3 h incubation, 0.25-75 nM, nonspecific binding with 2-PMPA; for Bmax (maximum achievable concentration on 10^6 tumor cells): Scatchard plots
T1 construct: host or cells: LNCaP cells
Protocol: The equilibrium dissociation constant describing the interaction of the radiolabeled ligands with the PSMA binding sites was determined in PSMA-positive LNCaP cell lines (Cell Line Service, Eppelheim, Germany). LNCaP cells were seeded at a density of 10^6 cells/well on a 6-well plate (Corning, ME, USA) and incubated under 5% CO2 at 37 °C for 48 h with medium (minimum essential medium Eagle supplemented with 2 mM L-glutamine, 0.1 mM non-essential amino acids (NEAA), 1.0 mM sodium pyruvate, 10% fetal bovine serum, 100 U/ml penicillin, and 100 µg/ml streptomycin) (Lonza, Verviers, Belgium) in a humidified incubator (Thermo Heracell 150 CO2-Incubator, MA, USA). To determine the nonspecific binding, the medium was removed from selected wells, and 1 ml of a solution of 0.1 mM of 2-(phosphonomethyl)-pentanedioic acid (2-PMPA) in fresh medium was added. […] The plates were then incubated under 5% CO2, at 37 °C for 1 h. After that, the medium was removed and the cells incubated under the same incubation conditions for 3 h with different concentrations (0.25 nM, 2.5 nM, 5 nM, 10 nM, 25 nM, 50 nM, and 75 nM) of the radiotracer under investigation in 1 ml fresh medium.
After 3 h, the cells were washed three times with 1 ml PBS, and the cells were finally lysed by adding 1 ml of 1 M NaOH and incubating them for 10 min at room temperature. All samples were measured with a gamma counter (Nuklear Medizintechnik Dresden Isomed 100, Dresden, Germany) and were decay-corrected. The equilibrium dissociation constant (Kd) and the maximum density of receptors (Bmax) were calculated by non-linear regression using GraphPad Prism 8.0.2 (GraphPad Software, San Diego, USA).

LNCaP cells [2] = test: Internalization in LNCaP cells; type: cell-based; settings: n=3
Protocol: as §1, §2

LNCaP tumor xenografts = settings: for Tumor/blood ratio / Tumor/kidneys ratio / Tumor/liver ratio / Tumor/muscle ratio: LNCaP xenograft mice; for Biodistribution Blood / Biodistribution Bone / Biodistribution Heart / Biodistribution Intestine / Biodistribution Kidneys / Biodistribution LNCAP-tumor / Biodistribution Lung / Biodistribution Muscle / Biodistribution Prostate / Biodistribution Spleen / Biodistribution Thyroid / Biodistribution Liver: i.v. 30 pmol, n=5
prostate cancer relapse = test: First-in-human PET/CT scan in a patient with biochemical recurrence of prostate cancer; settings: 2 h p.i., 343 MBq
Protocol: The patient had given their written informed consent for PET imaging and the scientific evaluation of their data. All procedures were performed in accordance with the Institutional Review Board and the regulations of the regional authorities in Cologne. The kidney dose was estimated on the basis of two PET scans. The following assumptions were made for the estimation: Between time 0 (injection) and the first measuring point, the time-activity-curve follows a constant progression. All measuring points were integrated numerically using trapezoidal approximation. From the last measuring point to infinity, a mono-exponential function was fitted and integrated. As the effective half-life could not be accurately determined from two measurement points, the physical half-life of Zr-89 was used instead.

T1 sequence (Q04609 whole entry): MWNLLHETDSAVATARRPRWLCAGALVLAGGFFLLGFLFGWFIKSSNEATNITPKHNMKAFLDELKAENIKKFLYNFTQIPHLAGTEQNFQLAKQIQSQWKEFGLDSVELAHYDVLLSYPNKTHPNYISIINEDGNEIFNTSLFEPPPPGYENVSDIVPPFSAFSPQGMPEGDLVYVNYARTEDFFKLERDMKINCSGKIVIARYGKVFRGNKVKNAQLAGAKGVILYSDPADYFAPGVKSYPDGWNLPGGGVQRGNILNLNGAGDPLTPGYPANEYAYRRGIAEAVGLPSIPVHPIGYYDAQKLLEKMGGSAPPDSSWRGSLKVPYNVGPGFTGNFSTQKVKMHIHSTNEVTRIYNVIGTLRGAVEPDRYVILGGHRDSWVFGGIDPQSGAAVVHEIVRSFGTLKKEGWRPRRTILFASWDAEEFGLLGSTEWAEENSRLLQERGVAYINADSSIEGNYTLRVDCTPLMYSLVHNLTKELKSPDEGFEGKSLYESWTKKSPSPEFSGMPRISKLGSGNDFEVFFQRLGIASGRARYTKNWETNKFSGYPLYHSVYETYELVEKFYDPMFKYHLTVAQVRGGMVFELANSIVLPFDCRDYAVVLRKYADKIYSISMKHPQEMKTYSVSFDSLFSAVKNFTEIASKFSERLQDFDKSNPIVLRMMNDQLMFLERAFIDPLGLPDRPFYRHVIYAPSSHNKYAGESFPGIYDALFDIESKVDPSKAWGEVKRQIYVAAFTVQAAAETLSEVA

## O=C(O)CCC(CP(=O)(O)O)C(=O)O (stereo not shown) [2-PMPA, 2-(phosphonomethyl)-pentanedioic acid]
LNCaP tumor xenograft; 1 h, 21 h and 48 h
  Effect of blocking on accumulation of [^89Zr]Zr-PSMA-DFO radioactivity in the liver: significantly increased; also recorded: radioactivity accumulated in the liver
LNCaP tumor xenograft; significant after 1 h
  Effect of blocking on accumulation of [^89Zr]Zr-PSMA-DFO radioactivity in the kidneys: significantly reduced
  Effect of blocking on tumor accumulation of [^89Zr]Zr-PSMA-DFO: strongly reduced; also recorded: markedly reduced

## COc1nc([18F])ccc1C(=O)NCCCCC(NC(=O)NC(CCC(=O)O)C(=O)O)C(=O)O (stereo not shown) [[^18F]F-JK-PSMA-7]
LNCaP cells [1]; 0.5 h
  Specific binding in LNCaP cells as percentage of total activity: 23.8±0.6 %
LNCaP cells [1]; 1 h
  Specific binding in LNCaP cells as percentage of total activity: 32.6±0.4 %
LNCaP cells [1]; 2 h
  Specific binding in LNCaP cells as percentage of total activity: 38.8±1.3 %
LNCaP cells [1]; 3 h
  Specific binding in LNCaP cells as percentage of total activity: 45.2±1.9 %
LNCaP cells [1]; 5 h
  Specific binding in LNCaP cells as percentage of total activity: 45.8±0.4 %
PSMA
  Kd: 5.07 ± 0.45 nM
  Bmax (maximum achievable concentration on 10^6 tumor cells): 2702 ± 61 fmol/10^6 cells
LNCaP cells [2]; 0.5 h
  Specific internalized activity as percentage of specific cell-bound activity: 19.6±1.3 %
LNCaP cells [2]; 1 h
  Specific internalized activity as percentage of specific cell-bound activity: 33.9±1.6 %
LNCaP cells [2]; 2 h
  Specific internalized activity as percentage of specific cell-bound activity: 44.3±2.5%
LNCaP cells [2]; 3 h
  Specific internalized activity as percentage of specific cell-bound activity: 46.0±2.2%
LNCaP cells [2]; 5 h
  Specific internalized activity as percentage of specific cell-bound activity: 48.6±0.9 %
LNCaP tumor xenografts; 2 h p.i.
  Tumor/blood ratio: 142 ± 24
  Tumor/kidneys ratio: 0.74 ± 0.08
  Tumor/liver ratio: 4.7 ± 1.2
  Tumor/muscle ratio: 282 ± 71
  Biodistribution Blood: 0.15 ± 0.04 %ID/g
  Biodistribution Bone: 0.18 ± 0.03 %ID/g
  Biodistribution Heart: 0.12 ± 0.02 %ID/g
  Biodistribution Intestine: 0.89 ± 0.18 %ID/g
  Biodistribution Kidneys: 27.2 ± 2.6 %ID/g
  Biodistribution LNCAP-tumor: 20.2 ± 2.4 %ID/g
  Biodistribution Lung: 0.18 ± 0.01 %ID/g
  Biodistribution Muscle: 0.07 ± 0.02 %ID/g
  Biodistribution Prostate: 0.22 ± 0.03 %ID/g
  Biodistribution Spleen: 2.15 ± 0.45 %ID/g
  Biodistribution Thyroid: 0.19 ± 0.02 %ID/g
LNCaP tumor xenografts; 4 h p.i.
  Tumor/liver ratio: 5.7 ± 0.7
  Biodistribution Blood: 0.12 ± 0.03 %ID/g
  Biodistribution Bone: 0.20 ± 0.03 %ID/g
  Biodistribution Heart: 0.10 ± 0.02 %ID/g
  Biodistribution Intestine: 1.53 ± 0.31 %ID/g
  Biodistribution Kidneys: 26.0 ± 3.5 %ID/g
  Biodistribution LNCAP-tumor: 21.3 ± 1.5 %ID/g
  Biodistribution Liver: 3.75 ± 0.50 %ID/g
  Biodistribution Lung: 0.18 ± 0.04 %ID/g
  Biodistribution Muscle: 0.19 ± 0.03 %ID/g
  Biodistribution Prostate: 0.60 ± 0.16 %ID/g
  Biodistribution Spleen: 1.57 ± 0.22 %ID/g
  Biodistribution Thyroid: 0.20 ± 0.02 %ID/g
Prostate cancer relapse
  SUVmax left prostate lobe: 4.63
  SUVmax right prostate lobe: 5.37

## O=C([O-])CN(CCN(CC(=O)[O-])Cc1cc(CCC(=O)NCCCCCC(=O)NCCCC[C@H](NC(=O)N[C@@H](CCC(=O)O)C(=O)O)C(=O)O)ccc1[O-])Cc1cc(CCC(=O)O)ccc1[O-].[68Ga+3].[OH3+] [[^68Ga]Ga-PSMA-11]
LNCaP cells [1]; 0.5 h
  Specific binding in LNCaP cells as percentage of total activity: 27.7±0.7%
LNCaP cells [1]; 1 h
  Specific binding in LNCaP cells as percentage of total activity: 35.3±3.1 %
LNCaP cells [1]; 2 h
  Specific binding in LNCaP cells as percentage of total activity: 42.0±1.2 %
LNCaP cells [1]; 3 h
  Specific binding in LNCaP cells as percentage of total activity: 46.3±2.1%
LNCaP cells [1]; 5 h
  Specific binding in LNCaP cells as percentage of total activity: 48.3±1.2%
PSMA
  Kd: 5.15 ± 0.6 nM
  Bmax (maximum achievable concentration on 10^6 tumor cells): 1746 ± 53 fmol/10^6 cells
LNCaP cells [2]; 0.5 h
  Specific internalized activity as percentage of specific cell-bound activity: 28.9±0.7%
LNCaP cells [2]; 1 h
  Specific internalized activity as percentage of specific cell-bound activity: 39.7±2.0%
LNCaP cells [2]; 2 h
  Specific internalized activity as percentage of specific cell-bound activity: 48.3±2.5%
LNCaP cells [2]; 3 h
  Specific internalized activity as percentage of specific cell-bound activity: 50.5±3.4%
LNCaP cells [2]; 5 h
  Specific internalized activity as percentage of specific cell-bound activity: 56.8±2.2 %
LNCaP tumor xenografts; 2 h p.i.
  Tumor/blood ratio: 15 ± 3
  Tumor/kidneys ratio: 0.09 ± 0.02
  Tumor/liver ratio: 6.2 ± 1.0
  Tumor/muscle ratio: 37 ± 8
  Biodistribution Blood: 1.34 ± 0.20 %ID/g
  Biodistribution Bone: 1.19 ± 0.31 %ID/g
  Biodistribution Heart: 1.10 ± 0.36 %ID/g
  Biodistribution Intestine: 1.50 ± 0.59 %ID/g
  Biodistribution Kidneys: 231 ± 41 %ID/g
  Biodistribution LNCAP-tumor: 19.4 ± 2.4 %ID/g
  Biodistribution Liver: 3.17 ± 0.18 %ID/g
  Biodistribution Lung: 3.27 ± 1.03 %ID/g
  Biodistribution Muscle: 0.54 ± 0.15 %ID/g
  Biodistribution Prostate: 4.09 ± 1.15 %ID/g
  Biodistribution Spleen: 40.9 ± 9.3 %ID/g
  Biodistribution Thyroid: 2.13 ± 0.27 %ID/g
LNCaP tumor xenografts; 4 h p.i.
  Tumor/kidneys ratio: 0.10 ± 0.05
  Tumor/liver ratio: 34.6 ± 6.6
  Biodistribution Blood: 0.21 ± 0.03 %ID/g
  Biodistribution Bone: 0.50 ± 0.19 %ID/g
  Biodistribution Heart: 1.35 ± 0.70 %ID/g
  Biodistribution Intestine: 0.65 ± 0.30 %ID/g
  Biodistribution Kidneys: 226 ± 25 %ID/g
  Biodistribution LNCAP-tumor: 23.2 ± 10.6 %ID/g
  Biodistribution Liver: 0.65 ± 0.21 %ID/g
  Biodistribution Lung: 1.23 ± 0.13 %ID/g
  Biodistribution Muscle: 0.42 ± 0.11 %ID/g
  Biodistribution Prostate: 1.67 ± 0.37 %ID/g
  Biodistribution Spleen: 62.5 ± 21.5 %ID/g
  Biodistribution Thyroid: 4.44 ± 2.9 %ID/g

## CC(=O)N1CCCCCNC(=O)CCC(=O)N2CCCCCNC(=O)CCC(=O)N(CCCCCNC(=O)CCC(=O)NCC3CCC(C(=O)NC(Cc4ccc5ccccc5c4)C(=O)NCCCCC(NC(=O)NC(CCC(=O)O)C(=O)O)C(=O)O)CC3)[O][Zr+]([O]1)[O]2 (stereo not shown) [[^89Zr]Zr-PSMA-DFO, [^89Zr]Zr-N-sucDf-AMCHA-2Nal-EuK]
PSMA
  Kd: 4.97 ± 0.57 nM
